Test results published in EP4818187A1, “COMPOUND AND USE THEREOF” (Ganzhou Hemay Pharmaceutical, Co., Ltd, priority 2023, dated 2025).
Marks after values point to notes of the source that are not given here.

Experiments:
[1] = test system: BxPC-3 (human pancreatic cancer in situ); assay: In vitro inhibitory effect against human tumor cells (MTT or SRB); assay type: cell-based; conditions: BXPC-3, 72 h, BxPC-3, test method printed MTT (head: SRB), 3 days
Experimental: (§1) Cells were cultured with 5% CO2 at 37°C and saturated humidity until they reached a logarithmic growth phase (usually adherent cells were nearly fully confluent). After removing adherent cells by trypsin/EDTA digestion, the cells were collected for subsequent experiments.
(§2) The cells were inoculated into a 96-well cell culture plate (hereinafter referred to as the 96-well plate) based on the cell count shown in Table 2, cultured overnight to achieve cell adherence, and then, after different concentrations of the test compound were added, further cultured for a total of 3 days. Finally, the total cell protein in the assay wells was assayed by SRB, or the cell viability was assessed by MTT:
(§3) 2.1 Assaying total cell protein by SRB: the modification is based on the method in the literature (V. Vichai and K. Kirtikara. Sulforhodamine B colorimetric assay for cytotoxicity screening. Nature Protocols. 2006, 1: 1112-1116). Specific method: the culture medium was pipetted out from the wells, the cells were fixed with 10% trichloroacetic acid for more than 1 h, and trichloroacetic acid was removed; the cells were washed with H2O, and stained with 0.4% SRB for 15-30 min; after excess SRB was removed, the cells were washed with 1% acetic acid; 100 µl of 10 mM tris(trihydroxymethylaminomethane) was added to dissolve the protein-bound SRB, followed by assay at a wavelength of 570 nm.
(§4) 2.2 Assaying cell viability by MTT: the modification is based on the method in the literature (J. Carmichael, W. DeGraff, A. Gazdar et al., Evaluation of a tetrazolium-based semiautomated colorimetric assay: assessment of chemosensitivity testing. Cancer Research. 1987, 47: 936-942). Specific method: For well-adherent cells: the medium was pipetted out, 100 µL of a basal medium containing 0.5 mg/mL MTT (medium free of fetal bovine serum (FBS) and other additives) was added to each well, and culture was continued for additional 3 h. The MTT-containing basal medium was pipetted out, and 100 µL of DMSO was added to each well to dissolve formazan, followed by assay at a wavelength of 490 nm.
(§5) For poorly-adherent cells: MTT solution was directly added to a concentration of 0.5 mg/mL, culture was continued for additional 3 h, and an equal volume of triple solvent was added to the system to dissolve formazan, followed by assay at a wavelength of 570 nm.
(§6) 2.3: 1-2 mg of β-glucuronidase was weighed, and dissolved in PBS to prepare 2 mg/mL stock solution. Prior to use, the stock solution was diluted with a complete medium to prepare 12.5 µg/mL enzyme working solution. For assay wells requiring the enzyme, 80 µL of the enzyme working solution was added, with the β-glucuronidase at a concentration of 1 µg/well; and for assay wells not requiring the enzyme, 80 µL of the complete medium was added.
(§7) 1-3 mg of the test compound was weighed, and dissolved in DMSO to prepare 20 mM stock solution. The stock solution was diluted in a 3-fold gradient with DMSO, then diluted 100-fold with RPMI1640 basal medium to obtain 10× working solutions, with a total of 8 concentrations. 20 µL of the 10× working solutions were add to the assay wells, with the final volume of each well of 200 µL, and with the DMSO at a concentration of 0.1%.
(§8) 2.4 Calculation of inhibitory activity of compound: the experiment includes a compound test group, a compound-free positive solvent control group (PC), and a negative solvent control group (NC) without cells and the compound. Inhibition rate = [1−(testvalue−NCmean)/(PCmean−NCmean)] × 100% [formula]
(§9) The mean and SD of the inhibition rate were obtained from replicate assay wells. A curve was plotted with the compound concentrations distributed in a logarithmic form as the abscissa and with the mean inhibition rates as the ordinate, and was fitted with a 4-parameter logistic equation. The compound concentration corresponding to 50% inhibition rate on the curve is the IC50 value. Table 2: Culture medium formulation and cell inoculation concentration for human tumor cell lines

[2] = test system: human non-small cell lung cancer NCI-H1975; assay: Biological Example 9: in vivo xenograft model of human non-small cell lung cancer NCI-H1975; design: species or system Balb/c-nu nude mice; conditions: nude mice
[3] = test system: A375 (human malignant melanoma); assay: In vitro inhibitory effect against human tumor cells (SRB); assay type: cell-based; conditions: A-375, 72 h, 3 days
Experimental: as §1, §2, §3, §6, §7, §8, §9

[4] = test system: HepG2 (human liver cancer cell); assay: as above; assay type: cell-based; conditions: HepG2, 72 h, 3 days
Experimental: as §1, §2, §3, §6, §7, §8, §9

[5] = test system: 22RV1 (human prostate cancer); assay: as above; assay type: cell-based; conditions: 22Rv1, 72 h, 22RV1, SRB, 3 days
Experimental: as §1, §2, §3, §6, §7, §8, §9

[6] = test system: human ovarian cancer SK-OV-3; assay: Biological Example 5: in vivo xenograft model of human ovarian cancer SK-OV-3; design: species or system Balb/c-nu nude mice; conditions: SK-OV-3 xenograft, nude mice; for Final body weight change (%) / Maximum body weight change (%) / Relative volume RTV (x±S.D.) / T/C (%) / Tumor inhibition rate (%) / Tumor weight (g, x±S.D.) / Body weight (g, x±S.D.) End / Body weight (g, x±S.D.) Start: 0.8 mg/kg i.v. qw×3
[7] = test system: NCI-H1975 (human non-small cell lung cancer); assay: In vitro inhibitory effect against human tumor cells (MTT); assay type: cell-based; conditions: NCI-H1975, 72 h, 3 days
Experimental: as §1, §2, §4, §5, §6, §7, §8, §9

[8] = test system: HCT116 (human colorectal cancer); assay: as above; assay type: cell-based; conditions: HCT-116, 72 h, 3 days
Experimental: as §1, §2, §4, §5, §6, §7, §8, §9

[9] = test system: SK-OV-3 (human ovarian cancer); assay: as above; assay type: cell-based; conditions: SK-OV-3, 72 h, SK-OV-3, MTT, 3 days
Experimental: as §1, §2, §4, §5, §6, §7, §8, §9

[10] = test system: Fadu (human pharyngeal squamous cell carcinoma); assay: as above; assay type: cell-based; conditions: 72 h, 3 days
Experimental: as §1, §2, §4, §5, §6, §7, §8, §9

[11] = test system: MDA-MB-468 (human triple-negative breast cancer); assay: In vitro inhibitory effect against human tumor cells (SRB); assay type: cell-based; conditions: MDA-MB-468, 72 h, MDA-MB-468, SRB, 3 days
Experimental: as §1, §2, §3, §6, §7, §8, §9

[12] = test system: human non-small cell lung cancer NCI-H1975; assay: Biological Example 7: in vivo xenograft model of human non-small cell lung cancer NCI-H1975; design: species or system Balb/c-nu nude mice; conditions: nude mice
[13] = test system: human non-small cell lung cancer NCI-H1975; assay: Biological Example 10: in vivo xenograft model of human non-small cell lung cancer NCI-H1975; design: species or system Balb/c-nu nude mice; conditions: nude mice
[14] = With addition of βGU (1 µg/well)

Structure (SMILES) | IC50 [1, 14] | IC50 ([1]; βGU-free) | IC50 [3, 14] | IC50 ([3]; βGU-free) | IC50 [4, 14] | IC50 ([4]; βGU-free) | IC50 [5, 14] | IC50 ([5]; βGU-free) | Final body weight change (%) [6] | Maximum body weight change (%) [6] | Relative volume RTV (x±S.D.) [6] | T/C (%) [6] | Tumor inhibition rate (%) [6] | Tumor weight (g, x±S.D.) [6] | Body weight (g, x±S.D.) End [6] | Body weight (g, x±S.D.) Start [6] | IC50 [7, 14] | IC50 ([7]; βGU-free) | IC50 [10, 14] | IC50 ([10]; βGU-free) | other results
CC[C@H](C)[C@@H]([C@@H](CC(=O)N1CCC[C@H]1[C@H](OC)[C@@H](C)C(=O)N[C@H](C)[C@@H](O)c1ccccc1)OC)N(C)C(=O)[C@@H](NC(=O)[C@H](C(C)C)[N+](C)(CC)Cc1ccc(O[C@@H]2O[C@H](C(=O)[O-])[C@@H](O)[C@H](O)[C@H]2O)cc1OCc1cn(CCOCCC(=O)Nc2ccc(-c3ccc(/N=N/c4ccc5c(S(=O)(=O)[O-])cc(S(=O)(=O)[O-])c(N)c5c4O)c(C)c3)cc2C)nn1)C(C)C.[Na+].[Na+] (stereo partly shown) [Example compound 8] | 0.54 nM | 21 nM | 2.4 nM | 43 nM | 4 nM | 86 nM | 3 nM | 63 nM | 4.6% | 4.6, d21% | 0.08±0.02 | 0.7% | 99.7% | 0.005 ± 0.003 g | 24.1 ± 1.6 g | 22.9 ± 1.6 g | 3.4 nM | 72 nM | 0.79 nM | 19 nM | Final body weight change (%) ([2]; 0.8 mg/kg i.v. qw×3): 4%; Maximum body weight change (%) ([2]; 0.8 mg/kg i.v. qw×3): 4.3, d17%; Relative volume RTV (x±S.D.) ([2]; 0.8 mg/kg i.v. qw×3): 0.19±0.27; T/C (%) ([2]; 0.8 mg/kg i.v. qw×3): 2.5%; Tumor inhibition rate (%) ([2]; 0.8 mg/kg i.v. qw×3): 98.3%; Tumor weight (g, x±S.D.) ([2]; 0.8 mg/kg i.v. qw×3): 0.022±0.038* * g; Body weight (g, x±S.D.) End 24d ([2]; 0.8 mg/kg i.v. qw×3, End 24d): 26.3 ± 1.5 g; Body weight (g, x±S.D.) Start ([2]; 0.8 mg/kg i.v. qw×3, Start): 25.3 ± 1.1 g; Animal death ([6]; 0.8 mg/kg i.v. qw×3, group G5, stated to be independent of drug administration (biting and fighting injury)): One animal in group G5 died on day 18; IC50 [8, 14]: 2.1 nM; IC50 ([8]; βGU-free): 51 nM; IC50 [9, 14]: 2.6 nM; IC50 ([9]; βGU-free): 61 nM
CC[C@H](C)[C@@H]([C@@H](CC(=O)N1CCC[C@H]1[C@H](OC)[C@@H](C)C(=O)N[C@H](C)[C@@H](O)c1ccccc1)OC)N(C)C(=O)[C@@H](NC(=O)[C@H](C(C)C)N(C)Cc1ccc(O[C@@H]2O[C@H](C(=O)O)[C@@H](O)[C@H](O)[C@H]2O)cc1OCc1cn(CCCCCC(=O)Nc2ccc(-c3ccc(/N=N/c4ccc5c(S(=O)(=O)O)cc(S(=O)(=O)O)c(N)c5c4O)c(C)c3)cc2C)nn1)C(C)C [Example compound 3] | 9.7 nM | 106 nM | – | – | – | – | – | – | – | – | – | – | – | – | – | – | – | – | 7.8 nM | 159 nM | IC50 [11, 14]: 0.77 nM; IC50 ([11]; βGU-free): 50 nM
CC[C@H](C)[C@@H]([C@@H](CC(=O)N1CCC[C@H]1[C@H](OC)[C@@H](C)C(=O)N[C@H](C)[C@@H](O)c1ccccc1)OC)N(C)C(=O)[C@@H](NC(=O)[C@H](C(C)C)[N+](C)(CC)Cc1ccc(O[C@@H]2O[C@H](C(=O)[O-])[C@@H](O)[C@H](O)[C@H]2O)cc1OCc1cn(CCCCCC(=O)Nc2ccc(-c3ccc(/N=N/c4ccc5c(S(=O)(=O)[O-])cc(S(=O)(=O)[O-])c(N)c5c4O)c(C)c3)cc2C)nn1)C(C)C.[Na+].[Na+] (stereo partly shown) [Example compound 12] | 0.53 nM | 28 nM | 1 nM | 50 nM | 3 nM | 106 nM | 2.5 nM | 77 nM | 4.4% | 4.4, d21% | 0.07±0.04 | 0.6% | 99.7% | 0.005 ± 0.001 g | 25.1 ± 1.4 g | 24.1 ± 1.2 g | 1.2 nM | 74 nM | 0.21 nM | 36 nM | Final body weight change (%) ([12]; 0.8 mg/kg i.v. qw×3): 5.8%; Maximum body weight change (%) ([12]; 0.8 mg/kg i.v. qw×3): 5.8, d21%; Relative volume RTV (x±S.D.) ([12]; 0.8 mg/kg i.v. qw×3): 0.46±0.35; T/C (%) ([12]; 0.8 mg/kg i.v. qw×3): 3.2%; Tumor inhibition rate (%) ([12]; 0.8 mg/kg i.v. qw×3): 97.8%; Tumor weight (g, x±S.D.) ([12]; 0.8 mg/kg i.v. qw×3): 0.039 ± 0.039 g; Body weight (g, x±S.D.) End ([12]; 0.8 mg/kg i.v. qw×3, End): 25.6 ± 2.4 g; Body weight (g, x±S.D.) Start ([12]; 0.8 mg/kg i.v. qw×3, Start): 24.1 ± 1.6 g; Final body weight change (%) ([13]; 0.4 mg/kg i.v. qw×2): 5.7%; Maximum body weight change (%) ([13]; 0.4 mg/kg i.v. qw×2): 5.7, d28%; Relative volume RTV (x±S.D.) ([13]; 0.4 mg/kg i.v. qw×2): 0.44±0.06; T/C (%) ([13]; 0.4 mg/kg i.v. qw×2): 8.8%; Tumor inhibition rate (%) ([13]; 0.4 mg/kg i.v. qw×2): 92.1%; Tumor weight (g, x±S.D.) ([13]; 0.4 mg/kg i.v. qw×2): 0.086 ± 0.009 g; Body weight (g, x±S.D.) End 24d ([13]; 0.4 mg/kg i.v. qw×2, End 24d): 23.1 ± 0.7 g; Body weight (g, x±S.D.) Start ([13]; 0.4 mg/kg i.v. qw×2, Start): 21.8 ± 0.6 g; IC50 [8, 14]: 1.6 nM; IC50 ([8]; βGU-free): 84 nM; IC50 [9, 14]: 1.1 nM; IC50 ([9]; βGU-free): 37 nM
